Measured values reported in patent US12516027B2, “Lappaconitine derivative and use thereof” (priority 2020, dated 2026).

Assays:
[1] = tested on: ovariectomized (OVX) mice; assay: Animal model of osteoporosis, ovariectomized (OVX) mice; type: in vivo
Excerpt: An ability of QG3030 to treat osteoporosis was confirmed in an animal model of ovariectomized (OVX) mice commonly used as an animal model of osteoporosis.
As the positive controls, parathyroid hormone (PTH)-based Forteo (Eli Lilly) used as an osteoporosis therapeutic agent through an osteogenesis-promoting mechanism, and alendronate-based Fosamax (Merck) serving as a bone resorption inhibitor were subcutaneously administered. As the negative control, water (H2O) was orally administered, and QG3030 was orally administered at a concentration of 5 or 30 mg/kg (FIG. 9A). After the drug was administered daily for 10 weeks, the bone mineral density (BMD) was measured.
In Table 2, BMD represents bone mineral density, TV represents total volume, BV represents bone volume, Tb.Th represents trabecular thickness, and Tb.N represents trabecular number.

RUNX2 [2] = assay: RUNX2 expression in MSCs with QG3030 and ERK inhibitor PD98059; type: cell-based, human; conditions: same at 24 hours
Description: (§1) ERK may induce the phosphorylation of RUNX2 to increase transcriptional activity and may be involved in stability to increase an amount of RUNX2 protein (Greenblatt et al., MB, Annu Rev Cell Dev Biol. 2013). Therefore, an increase in ERK phosphorylation by QG3030 may induce RUNX2 expression so that QG3030 can be involved in the differentiation of MSCs into osteoblasts. To verify this, an expression level of RUNX2 was determined after MSCs were treated with a combination of QG3030 (0.1 μM) and the ERK inhibitor PD98059 (50 μM).

ERK [3] = assay: Phosphorylated ERK in MSCs with QG3030 and ERK inhibitor PD98059; type: cell-based, human
Description: as §1

human MSCs = assay: Osteocytic differentiation potential in MSCs (Alizarin Red and Von Kossa staining); type: cell-based; conditions: 0.1 μM, cultured for 3 weeks, like OIM positive control
Description: Osteoblasts involved in the osteogenesis are formed by differentiating mesenchymal stem cells (MSCs) using external stimuli and transcription factors involved in various signaling pathways (Garg et al., Orthop Surg. 2017). Accordingly, an experiment was performed to check whether QG3030 was able to induce the differentiation of human MSCs into osteoblasts.
MSCs from normal humans were purchased from the American Type Culture Collection (ATCC, U.S.A), and cultured in an MSC-specific culture medium (Gibco). The cultured cells were digested with trypsin, centrifuged, and then seeded in a 24-well plate at a concentration of 3×10^4 cells/well. The next day, the MSC culture medium was exchanged with a DMEM (DMEM/10% FBS/penicillin/streptomycin) as an experimental medium, and the cells were treated with QG3030 alone (0.1 μM) or OIM (osteogenesis-inducing medium; StemPro Osteogenesis Differentiation Kit, ThermoFisher Scientific Inc.) as the positive control. Thereafter, the cell culture medium was exchanged with a fresh DMEM every day, treated with QG3030 or OIM, and then cultured for 3 weeks. After the culture was completed, the cells were stained with Alizarin Red for detection of calcium and Von Kossa for detection of mineral production.

RUNX2 [4] = assay: Change in expression of RUNX2 in MSCs (antibody staining, fluorescence microscope); type: cell-based, human; conditions: 0.001 μM, once a day for 7 and 14 days; increased with increasing concentration
Excerpt: (§2) Runt-related transcription factor 2 (RUNX2; core-binding factor alpha, Cbfa1) is the most important transcriptional regulatory factor for osteogenesis, and is known to be involved in osteoblast differentiation, matrix generation, and mineralization during osteogenesis (Bruderer M, et al., Eur Cell Mater. 2014). Also, RUNX2 itself may be regulated by a bone morphogenetic protein (BMP), which is a type of cytokine (Sun J, et al., Mol Med Rep. 2015). Accordingly, it was confirmed whether QG3030 promotes the expression of osteogenesis-related specific factors to induce osteogenesis.
(§3) MSCs were seeded in a 24-well plate at a concentration of 3×10^4 cells/well, and cultured for 24 hours. From the next day, the MSCs were treated with different concentrations (0.001 μM, 0.01 μM, and 0.1 μM) of QG3030 once a day for 7 days and 14 days. After the experiment was completed, the MSCs were stained with RUNX2 and BMP-2 antibodies, and observed using a fluorescence microscope.

BMP-2 = assay: Change in expression of BMP-2 in MSCs (antibody staining, fluorescence microscope); type: cell-based, human; conditions: 0.001 μM, once a day for 7 and 14 days; increased with increasing concentration
Excerpt: as §2, §3

osteocalcin = assay: Change in expression of osteocalcin in MSCs (antibody staining, fluorescence microscope); type: cell-based, human; conditions: 0.001 μM, within 7 days
Description: Osteocalcin is expressed only in osteoblasts (Lee et al., Cell 2007), and is used as a biomarker useful for osteogenesis (Bharadwaj et al., Osteoporosis International., 2009).
An experiment was performed in the same manner as described in Experimental Example 1-2, and MSCs were then stained with an osteocalcin antibody, and observed using a fluorescence microscope.

ERK, Akt, WNK1 = assay: Phosphokinase antibody array in MSCs; type: cell-based, human; conditions: 1 μM, 24 hours, compared to control DMSO
Description: To study a mechanism by which QG3030 differentiates MSCs into osteoblasts, related signaling was investigated.
MSCs cultured in an experimental DMEM were treated with QG3030 (1 μM) or the control compound (DMSO), and cultured for 24 hours. The cells were recovered, and an experiment was then performed according to a method specified in a phosphokinase antibody array kit (R&D Systems) containing antibodies that specifically recognize phosphorylated forms of 43 kinases. Then, samples were analyzed using an ImageJ (NIH, USA) program.

MSCs = assay: Osteoblast differentiation of MSCs with kinase inhibitor combination (Alizarin Red); type: cell-based, human; conditions: QG3030 1 μM + kinase inhibitor 1 μM, 3 weeks, compared to QG3030-alone group
Description: To further study the mechanism by which QG3030 differentiates MSCs into osteoblasts, an experiment was performed using a kinase inhibitor.
After MSCs were cultured, the MSCs were simultaneously treated with a kinase inhibitor (1 μM) and QG3030 (1 μM). The next day, the medium was exchanged, and the MSCs were simultaneously treated again with the kinase inhibitor and QG3030. This procedure was repeated for 3 weeks, and the MSCs were then stained with Alizarin Red.

ERK [5] = assay: Level of phosphorylated ERK (pERK) in MSCs over time; type: cell-based, human
Description: Accordingly, the level of the phosphorylated ERK according to time elapsed after MSCs were treated with QG3030 was determined.
Also, to determine whether QG3030 induces ERK phosphorylation for a long period, MSCs were treated with various concentrations (0.001, 0.01, and 0.1 μM) of QG3030, and the level of phosphorylated ERK (pERK) was checked after 7 days and 14 days.

Sprague Dawley (SD) rat = assay: Animal model of bone fracture, ilium bone defect; type: in vivo
Description: The ilium of a Sprague Dawley (SD) rat was subjected to drilling with a diameter of 2 mm to induce a bone defect, and QG3030 (6, 30, and 150 μg/10 μL) mixed with an excipient (collagen sponge, CollaCote®) was implanted into a bone defect site to evaluate an osteoanagenic effect (FIG. 11).
To statistically quantify the osteoanagenic capacity of QG3030, a degree of osteogenesis was realized with a 3-D image, and a region of interest (ROI) was set to analyze parameters such as bone volume/total volume (BV/TV; %), trabecular thickness (Tb.Th; mm), trabecular number (Tb.N; 1/mm), and trabecular separation (Tb.Sp; mm).

[6] = OVX mice, positive control, subcutaneous, daily for 10 weeks
[7] = OVX mice, 5 mg/kg oral, daily for 10 weeks
[8] = OVX mice, 30 mg/kg oral, daily for 10 weeks
[9] = OVX mice, 5 or 30 mg/kg oral, daily for 10 weeks
[10] = implanted in collagen sponge at bone defect site, QG3030 low, medium and high, BMP2 1 ug/10 uL

`CC[C@H](C)[C@H](NC(=O)[C@H](CCC(=O)O)NC(=O)[C@H](CO)NC(=O)[C@@H](NC(=O)[C@@H](N)CO)C(C)C)C(=O)N[C@@H](CCC(N)=O)C(=O)N[C@@H](CC(C)C)C(=O)N[C@@H](CCSC)C(=O)N[C@@H](Cc1cnc[nH]1)C(=O)N[C@@H](CC(N)=O)C(=O)N[C@@H](CC(C)C)C(=O)NCC(=O)N[C@@H](CCCCN)C(=O)N[C@@H](Cc1cnc[nH]1)C(=O)N[C@@H](CC(C)C)C(=O)N[C@@H](CC(N)=O)C(=O)N[C@@H](CO)C(=O)N[C@@H](CCSC)C(=O)N[C@@H](CCC(=O)O)C(=O)N[C@@H](CCCN=C(N)N)C(=O)N[C@H](C(=O)N[C@@H](CCC(=O)O)C(=O)N[C@@H](Cc1c[nH]c2ccccc12)C(=O)N[C@@H](CC(C)C)C(=O)N[C@@H](CCCN=C(N)N)C(=O)N[C@@H](CCCCN)C(=O)N[C@@H](CCCCN)C(=O)N[C@@H](CC(C)C)C(=O)N[C@@H](CCC(N)=O)C(=O)N[C@@H](CC(=O)O)C(=O)N[C@H](C(=O)N[C@@H](Cc1cnc[nH]1)C(=O)N[C@@H](CC(N)=O)C(=O)N[C@@H](Cc1ccccc1)C(=O)O)C(C)C)C(C)C` [Forteo, reference compound] was tested, and the BMD [1, 6] was 0.1997 g/mL, the BV [1, 6] was 0.8791 mm^3 and the BV/TV [1, 6] was 5.735%. For the same compound, the TV [1, 6] was 15.43 mm^3.
With `NCCCC(O)(P(=O)(O)O)P(=O)(O)O` [Fosamax, reference compound] the BMD [1, 6] was 0.2135 g/mL, the BV [1, 6] was 1.017 mm^3 and the BV/TV [1, 6] was 6.521%. For the same compound, the TV [1, 6] was 15.51 mm^3.
For `COc1cccc(-c2cc(=O)c3ccccc3o2)c1N` [PD98059, reference compound], the “expression of RUNX2” value (RUNX2 [2]; combination of QG3030 0.1 μM and PD98059 50 μM, 12 hours) was “significantly decreased” and the “increase in the phosphorylation level of ERK by QG3030” value (ERK [3]; combination of QG3030 0.1 μM and PD98059 50 μM) was “inhibited”.
In the case of `CCN1C[C@]2(O)CC[C@H](OC)C34C1C(C[C@@H]32)[C@]1(O)C[C@H](OC)[C@@H]2C(=O)C(=O)[C@H]4[C@@H]21` [QG3030, (2aR,2a1S,3S,4aS,8S,11S,11bS,12S)-6-ethyl-4a,8-dihydroxy-3,11-dimethoxy-tetradecahydro-8,11a,5-(epiethane[1,1,2]triyl)cyclopenta[7,1]indeno[5,4-b]azocin-1,2-dione], the “calcium (Alizarin Red staining)” value (human MSCs) is reported as “induced calcium and mineral production”, the “mineral production (Von Kossa staining)” value (human MSCs) is reported as “induced calcium and mineral production” and the “expression of RUNX2” value (RUNX2 [4]) is reported as “strongly induced the expression”. For the same compound, the “expression of BMP-2” value (BMP-2) was “strongly induced the expression”, the expression of osteocalcin (osteocalcin) was “strongly induced the expression of osteocalcin” and the “phosphorylation of signaling molecules such as ERK, Akt, WNK1” value (ERK, Akt, WNK1) was “strongly increased the phosphorylation”. The “osteoblast differentiation ability of QG3030 (Alizarin Red) in combination with inhibitor of ERK, P38 or Akt” value (MSCs) was “inhibited”, the “level of phosphorylated ERK (pERK)” value (ERK [5]; 0.001, 0.01 and 0.1 μM, after 7 days and 14 days) was “significantly increased” and the “level of phosphorylated ERK (pERK)” value (ERK [5]; after 24 hours after treatment) was “increased”. For the same compound, the “level of phosphorylated ERK (pERK) compared with positive control (OIM)” value (ERK [5]; low concentration, 7 days, lasted until 14 days) was “greater than that of the positive control”, the “level of phosphorylated ERK (pERK)” value (ERK [5]; within 30 minutes after treatment) was “significantly increased” and the “expression of RUNX2” value (RUNX2 [2]; QG3030 0.1 μM alone, within 12 hours) was “significantly increased”. For the same compound, the “phosphorylation level of ERK” value (ERK [3]; QG3030 0.1 μM alone) was “increased”, the BMD [1, 7] was 0.2136 g/mL and the BV [1, 7] was 1.107 mm^3. For the same compound, the BV/TV [1, 7] was 6.713%, the TV [1, 7] was 16.57 mm^3 and the “Tb. N” value [1, 7] was 0.9472 1/mm. For the same compound, the “Tb. Th” value [1, 7] was 0.07081 mm, the BMD [1, 8] was 0.2301 g/mL and the BV [1, 8] was 1.156 mm^3. The BV/TV [1, 8] was 7.731%, the TV [1, 8] was 14.92 mm^3 and the “Tb. N” value [1, 8] was 1.044 1/mm. For the same compound, the “Tb. Th” value [1, 8] was 0.07492 mm, the “bone mineral density compared to the negative control” value [1, 9] was “significantly increased” and the “effect on bone mineral density compared with Forteo” value [1, 9] was “significantly superior to that of Forteo”. The “expression of RUNX2 in the femurs (tissue staining)” value ([1]; ovariectomized mice) was “significantly increased”, the “osteogenesis in the femurs (tissue staining)” value ([1]; ovariectomized mice) was “induced osteogenesis” and the “tissue staining markers (H&E, collagen, type I collagen, osteocalcin) at bone defect sites” value (Sprague Dawley (SD) rat; QG3030 low, medium and high concentrations, effect similar to BMP2) was “markers were expressed”. The “bone quality by Tb.N and Tb.Sp (other than Tb.Th) compared to DMSO-treated group” value (Sprague Dawley (SD) rat; [10]) was “high-quality bone tissue was statistically significantly formed”, the “bone volume/total volume (BV/TV) compared to negative control treated with DMSO” value (Sprague Dawley (SD) rat; [10]) was “increased to a similar level” and the “quality of generated bone compared to BMP2” value (Sprague Dawley (SD) rat; no statistical significance) was “better quality of bone compared to BMP2”.
